In ChEMBL document CHEMBL1201862, “PubChem BioAssay data set” (2004):
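These data come from cells grown in 96-well plates and exposed to compound for 48 hours at five concentrations. GI50: concentration for 50% inhibition of growth.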 Activity calls are given as the source filed them. Cut-off read from the data, not from the text of the source: active = GI50 up to about 1.1 µM and inactive = higher.

Tests used:
Assay in all cases: NCI tumour cell line growth inhibition, 48 h
SR = system: SR
MDA-MB-231 = system: MDA-MB-231
UO-31 = system: UO-31
MDA-MB-435 = system: MDA-MB-435
M14 = system: M14
OVCAR-5 = system: OVCAR-5
HCT-15 = system: HCT-15
786-0 = system: 786-0
COLO 205 = system: COLO 205
NCI/ADR-RES = system: NCI/ADR-RES
SF-295 = system: SF-295
RPMI-8226 = system: RPMI-8226
SW-620 = system: SW-620
NCI-H226 = system: NCI-H226
DU-145 = system: DU-145
IGROV-1 = system: IGROV-1
OVCAR-3 = system: OVCAR-3
SK-MEL-5 = system: SK-MEL-5
UACC-62 = system: UACC-62
MDA-N = system: MDA-N

| SMILES | GI50 (SR) | GI50 (MDA-MB-231) | GI50 (UO-31) | GI50 (MDA-MB-435) | GI50 (M14) | GI50 (OVCAR-5) | GI50 (HCT-15) [µM] | GI50 (786-0) | GI50 (COLO 205) | GI50 (NCI/ADR-RES) | GI50 (SF-295) | GI50 (RPMI-8226) | GI50 (SW-620) | GI50 (NCI-H226) | GI50 (DU-145) | GI50 (IGROV-1) | GI50 (OVCAR-3) | GI50 (SK-MEL-5) | GI50 (UACC-62) | GI50 (MDA-N) |
| --- | --- | --- | --- | --- | --- | --- | --- | --- | --- | --- | --- | --- | --- | --- | --- | --- | --- | --- | --- | --- |
| CCCC(=O)N[C@H]1CCc2cc(OC)c(OC)c(OC)c2-c2ccc(SC)c(=O)cc21 | < 0.01 µM (active) | < 0.01 µM (active) | 0.31 µM (active) | < 0.01 µM (active) | < 0.01 µM (active) | 0.278 µM (active) | 0.0109 | < 0.01 µM (active) | < 0.01 µM (active) | 0.016 µM (active) | < 0.01 µM (active) | 0.0631 µM (active) | < 0.01 µM (active) | < 0.0465 µM (active) | < 0.01 µM (active) | < 0.01 µM (active) | < 0.01 µM (active) | < 0.01 µM (active) | < 0.01 µM (active) | < 0.01 µM (active) |
| Clc1ccccc1C(Nc1cnccn1)Nc1cnccn1 | 0.07 µM (active) | > 100 µM (inactive) | > 100 µM (inactive) | 8.59 µM (inactive) | 5.85 µM (inactive) | > 100 µM (inactive) | 8.71 | > 100 µM (inactive) | > 100 µM (inactive) | > 100 µM (inactive) | > 100 µM (inactive) | 35.1 µM (inactive) | 4.36 µM (inactive) | > 100 µM (inactive) | > 100 µM (inactive) | > 100 µM (inactive) | > 100 µM (inactive) | > 100 µM (inactive) | > 100 µM (inactive) | 23.2 µM (inactive) |
| Cc1ccc(N/N=C2\C3=C(CCC(C)(C)O3)C(=O)c3ccccc32)cc1 | 16.5 µM (inactive) | 56.1 µM (inactive) | 23.4 µM (inactive) | 17.9 µM (inactive) | 16.9 µM (inactive) | 18.4 µM (inactive) | 27.5 | 28 µM (inactive) | 24.7 µM (inactive) | 25.6 µM (inactive) | 14.7 µM (inactive) | 26.5 µM (inactive) | 33.8 µM (inactive) | 35.2 µM (inactive) | 12.4 µM (inactive) | 29.1 µM (inactive) | 24.2 µM (inactive) | 4.17 µM (inactive) | 14.9 µM (inactive) | 4.43 µM (inactive) |
| COC(=O)[C@H](C)N1C(=O)N[C@@H](C(C)C)C1=O | > 100 µM (inactive) | > 100 µM (inactive) | > 100 µM (inactive) | > 100 µM (inactive) | > 100 µM (inactive) | > 100 µM (inactive) | > 100 | > 100 µM (inactive) | > 100 µM (inactive) | > 100 µM (inactive) | > 100 µM (inactive) | > 100 µM (inactive) | > 100 µM (inactive) | > 100 µM (inactive) | > 100 µM (inactive) | > 100 µM (inactive) | > 100 µM (inactive) | > 100 µM (inactive) | > 100 µM (inactive) | > 100 µM (inactive) |
| Cc1ccc2c(c1)C(=O)C(Cc1ccccc1C(=O)O)C2 (stereo not given) | > 100 µM (inactive) | > 100 µM (inactive) | > 100 µM (inactive) | > 100 µM (inactive) | > 100 µM (inactive) | > 100 µM (inactive) | > 100 | > 100 µM (inactive) | > 100 µM (inactive) | > 100 µM (inactive) | > 100 µM (inactive) | > 100 µM (inactive) | > 100 µM (inactive) | > 100 µM (inactive) | > 100 µM (inactive) | > 100 µM (inactive) | > 100 µM (inactive) | > 100 µM (inactive) | > 100 µM (inactive) | > 100 µM (inactive) |
| NC1=NC(c2ccc(Cl)cc2)N(c2ccc(S(=O)(=O)Nc3ncccn3)cc2)C(N)=N1 (stereo not given) | > 100 µM (inactive) | > 100 µM (inactive) | > 100 µM (inactive) | > 100 µM (inactive) | > 100 µM (inactive) | > 100 µM (inactive) | > 100 | > 100 µM (inactive) | > 100 µM (inactive) | > 100 µM (inactive) | > 100 µM (inactive) | > 100 µM (inactive) | > 100 µM (inactive) | > 100 µM (inactive) | > 100 µM (inactive) | > 100 µM (inactive) | > 100 µM (inactive) | > 100 µM (inactive) | > 100 µM (inactive) | > 100 µM (inactive) |
| CN1C[C@@H]2CCCN2P1Oc1cccc2cccnc12 (stereo not given in full) | 25.7 µM (inactive) | 42.6 µM (inactive) | 34.9 µM (inactive) | 45.6 µM (inactive) | 33.7 µM (inactive) | 32.6 µM (inactive) | 16.6 | > 100 µM (inactive) | 30.5 µM (inactive) | 19.8 µM (inactive) | 85.7 µM (inactive) | 13.2 µM (inactive) | 18.7 µM (inactive) | 80.9 µM (inactive) | 83.4 µM (inactive) | 32.9 µM (inactive) | 23.4 µM (inactive) | 41.5 µM (inactive) | 39.3 µM (inactive) | 55.2 µM (inactive) |
